US20200131176A1, “SELECTIVE INHIBITORS OF CLINICALLY IMPORTANT MUTANTS OF THE EGFR TYROSINE KINASE” (CS Pharmatech Limited, priority 2017, published 2020)
Where two headings read alike, the source gives them in different places.

What was measured:
Mouse in vivo PK study [1] = conditions: male CD1 mice, 1 mg/kg IV
Experimental: To determine the drug concentration in plasma of the compounds of the present disclosure following intravenous and oral administration in male CD 1 Mice, pharmacokinetic profile and PK parameters were obtained.
Test animals: healthy male CD1 mice (body weight 20-30 g, 18 mice, free access to food and water), provided by Sibeifu laboratory. […]
Samples collection: the healthy animals were used, weighed the bodyweight and marked at tail and cage card prior to dosing. Blood samples (0.03 mL per time point) were collected from dorsal metatarsal vein at 0.083, 0.25, 0.5, 1, 2, 4, 8, 24 h post dose for IV group and at 0.25, 0.5, 1, 2, 4, 8, 24 h post dose for PO group, the terminal time point was collected from heart (˜0.3 mL). The blood samples were put into the tube with heparin-Na coated and then put on the cold box, centrifuged at 4° C. 4000 g, 5 minutes immediately after collecting all samples per time point to get plasma. The plasma samples were stored in a freezer at −75±15° C. prior to analysis.
The drug concentration was determined by LC/MS/MS method, and the PK parameters were observed as follows.

INSR = molecular target: T1, INSR (Homo sapiens, UniProt P06213); assay: INSR inhibition assay (Caliper mobility shift); format: biochemical; conditions: enzyme assay
T1 construct: purchased CARNA BIOSCIENCE 08-142

H1975 cells = assay: H1975 inhibition assay (cell proliferation, CellTiter-Glo, 72 h); format: cell-based, human; conditions: Homo sapiens, NCI-H1975, 72 h, cellular proliferation, double mutant EGFR, read-out: NCI-H1975 IC50 (nM) DM
Mouse in vivo PK study [2] = conditions: mouse, plasma, male CD1 mice, 10 mg/kg PO
PC-9 cells = assay: PC-9 growth inhibition assay (cell proliferation, CellTiter-Glo, 72 h); format: cell-based, human; conditions: Homo sapiens, PC-9, 72 h, cellular proliferation, PC9 cells, single mutant EGFR, read-out: PC9 IC50 (nM) SM
[3] = molecular target: T2, L858R/T790M double mutant EGFR in H1975 cells (Homo sapiens, UniProt P00533, L858R/T790M); assay: L858R/T790M double mutant H1975 autophosphorylation inhibition assay (ELISA); format: cell-based; conditions: cellular EGFR autophosphorylation, H1975, 2 h treatment; read-out: DM (H1975) IC50
T2 construct: endogenous in cells; host or cells: H1975 cells

[4] = molecular target: hERG channel (HEK 293 cell line stably expressing hERG channel) (Homo sapiens, UniProt Q12809); assay: cell-based
A431 cells = assay: A431 inhibition assay (cell proliferation, CellTiter-Glo, 72 h); format: cell-based, human; conditions: Homo sapiens, A-431, 72 h, cellular proliferation, wild type EGFR, read-out: A431 IC50 (nM) WT
IGF-1R = molecular target: T3, IGF-1R (Homo sapiens, UniProt P08069); assay: IGF-1R inhibition assay (Caliper mobility shift); format: biochemical; conditions: enzyme assay
T3 construct: purchased CARNA BIOSCIENCE 08-141

[5] = molecular target: T4, Exon 19 deletion EGFR (activating single mutant) in PC-9 cells (Homo sapiens, UniProt P00533, DEL746-750); assay: Exon 19 deletion EGFR PC-9 cellular autophosphorylation assay (p-EGFR ELISA); format: cell-based; conditions: PC9, 2 h treatment, read-out: SM (PC9) IC50
T4 construct: cellular phosphorylation of endogenous p-EGFR; host or cells: PC9 (PC-9) human lung cell line

[6] = molecular target: Wild type EGFR in A431 cells (Homo sapiens, UniProt P00533); conditions: WT (A431) IC50 nM, cellular EGFR autophosphorylation, A431, 2 h treatment then EGF stimulation 10 min
[7] = test system: H1975 NSCLC cells xenograft (EGFR L858R/T790M double mutant); assay: EGFR L858R/T790M double-mutant H1975 xenograft model; format: in vivo, nu/nu mice; conditions: day 10 after dosing; for Tumor Size: average ± SEM, n = 9

hERG channel (HEK 293 cell line stably expressing hERG channel), sequence (Q12809 whole entry): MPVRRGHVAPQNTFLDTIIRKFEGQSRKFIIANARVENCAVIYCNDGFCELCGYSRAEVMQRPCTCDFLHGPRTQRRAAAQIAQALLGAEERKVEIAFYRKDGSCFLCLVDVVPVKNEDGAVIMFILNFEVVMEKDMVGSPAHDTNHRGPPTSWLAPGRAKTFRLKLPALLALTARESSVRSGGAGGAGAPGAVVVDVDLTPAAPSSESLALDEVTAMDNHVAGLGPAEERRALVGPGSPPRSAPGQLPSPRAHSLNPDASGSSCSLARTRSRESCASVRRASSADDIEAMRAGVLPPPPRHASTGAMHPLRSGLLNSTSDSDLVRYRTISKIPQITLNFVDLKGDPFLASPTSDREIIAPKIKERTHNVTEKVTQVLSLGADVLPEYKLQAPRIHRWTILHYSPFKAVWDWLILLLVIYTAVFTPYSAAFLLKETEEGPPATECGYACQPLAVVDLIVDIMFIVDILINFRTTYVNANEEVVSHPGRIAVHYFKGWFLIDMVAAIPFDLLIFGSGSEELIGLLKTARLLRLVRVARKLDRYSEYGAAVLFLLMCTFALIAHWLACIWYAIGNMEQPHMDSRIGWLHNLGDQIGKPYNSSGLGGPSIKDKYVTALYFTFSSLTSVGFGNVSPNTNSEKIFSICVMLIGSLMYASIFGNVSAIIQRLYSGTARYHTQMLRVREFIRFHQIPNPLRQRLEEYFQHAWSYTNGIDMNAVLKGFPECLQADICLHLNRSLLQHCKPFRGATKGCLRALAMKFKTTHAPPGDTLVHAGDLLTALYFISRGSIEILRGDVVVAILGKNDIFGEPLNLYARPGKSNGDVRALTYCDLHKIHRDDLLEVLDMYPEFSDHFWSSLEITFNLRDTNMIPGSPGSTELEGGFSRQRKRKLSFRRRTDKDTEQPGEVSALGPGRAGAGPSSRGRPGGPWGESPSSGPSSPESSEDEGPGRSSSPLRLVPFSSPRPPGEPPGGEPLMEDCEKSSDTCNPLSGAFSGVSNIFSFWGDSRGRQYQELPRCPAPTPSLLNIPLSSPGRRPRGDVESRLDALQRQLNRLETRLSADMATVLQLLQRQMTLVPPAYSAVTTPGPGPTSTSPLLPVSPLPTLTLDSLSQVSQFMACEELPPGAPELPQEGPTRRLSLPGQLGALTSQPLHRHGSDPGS
Wild type EGFR in A431 cells, sequence (P00533 25-1210): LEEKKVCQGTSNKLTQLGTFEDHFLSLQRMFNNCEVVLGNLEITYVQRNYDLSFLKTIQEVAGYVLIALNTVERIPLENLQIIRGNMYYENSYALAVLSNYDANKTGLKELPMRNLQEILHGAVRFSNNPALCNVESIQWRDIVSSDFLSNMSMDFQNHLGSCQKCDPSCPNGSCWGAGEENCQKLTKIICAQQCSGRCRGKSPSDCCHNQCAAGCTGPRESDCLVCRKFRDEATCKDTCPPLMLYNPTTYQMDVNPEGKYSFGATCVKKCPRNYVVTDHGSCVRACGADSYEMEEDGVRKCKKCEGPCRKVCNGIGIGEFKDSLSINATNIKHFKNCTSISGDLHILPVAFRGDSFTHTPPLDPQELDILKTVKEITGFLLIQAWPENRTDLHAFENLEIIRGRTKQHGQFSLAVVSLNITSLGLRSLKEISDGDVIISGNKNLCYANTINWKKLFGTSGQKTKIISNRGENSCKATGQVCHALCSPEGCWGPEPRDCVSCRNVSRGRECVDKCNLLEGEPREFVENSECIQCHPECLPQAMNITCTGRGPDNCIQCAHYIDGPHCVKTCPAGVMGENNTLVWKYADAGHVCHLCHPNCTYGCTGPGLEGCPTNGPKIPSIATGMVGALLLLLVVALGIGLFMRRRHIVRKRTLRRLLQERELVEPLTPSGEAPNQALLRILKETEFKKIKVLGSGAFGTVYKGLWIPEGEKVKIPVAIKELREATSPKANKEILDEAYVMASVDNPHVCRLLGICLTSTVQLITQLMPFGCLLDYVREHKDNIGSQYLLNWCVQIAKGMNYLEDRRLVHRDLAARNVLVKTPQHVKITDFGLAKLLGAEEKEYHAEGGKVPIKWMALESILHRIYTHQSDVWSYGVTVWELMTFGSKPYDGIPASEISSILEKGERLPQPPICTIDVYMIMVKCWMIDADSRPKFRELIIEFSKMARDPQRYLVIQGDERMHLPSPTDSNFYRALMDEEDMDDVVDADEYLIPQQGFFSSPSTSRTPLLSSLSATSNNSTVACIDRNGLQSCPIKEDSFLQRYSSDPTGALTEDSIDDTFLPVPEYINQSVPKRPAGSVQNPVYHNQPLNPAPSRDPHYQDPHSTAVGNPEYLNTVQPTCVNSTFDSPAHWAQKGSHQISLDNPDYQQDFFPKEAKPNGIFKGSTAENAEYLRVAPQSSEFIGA
T3 sequence (P08069 959-1367 limits assumed): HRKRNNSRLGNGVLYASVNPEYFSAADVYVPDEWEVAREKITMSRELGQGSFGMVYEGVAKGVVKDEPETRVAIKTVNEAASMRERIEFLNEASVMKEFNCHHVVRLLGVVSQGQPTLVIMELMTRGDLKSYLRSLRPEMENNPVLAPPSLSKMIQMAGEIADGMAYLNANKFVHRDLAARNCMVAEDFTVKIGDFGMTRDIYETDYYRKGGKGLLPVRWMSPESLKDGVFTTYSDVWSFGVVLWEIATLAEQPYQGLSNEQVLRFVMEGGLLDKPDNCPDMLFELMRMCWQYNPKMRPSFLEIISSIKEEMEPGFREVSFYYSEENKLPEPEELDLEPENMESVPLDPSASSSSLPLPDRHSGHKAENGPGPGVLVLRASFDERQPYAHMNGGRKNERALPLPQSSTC
T1 sequence (P06213 1005-1382 limits assumed): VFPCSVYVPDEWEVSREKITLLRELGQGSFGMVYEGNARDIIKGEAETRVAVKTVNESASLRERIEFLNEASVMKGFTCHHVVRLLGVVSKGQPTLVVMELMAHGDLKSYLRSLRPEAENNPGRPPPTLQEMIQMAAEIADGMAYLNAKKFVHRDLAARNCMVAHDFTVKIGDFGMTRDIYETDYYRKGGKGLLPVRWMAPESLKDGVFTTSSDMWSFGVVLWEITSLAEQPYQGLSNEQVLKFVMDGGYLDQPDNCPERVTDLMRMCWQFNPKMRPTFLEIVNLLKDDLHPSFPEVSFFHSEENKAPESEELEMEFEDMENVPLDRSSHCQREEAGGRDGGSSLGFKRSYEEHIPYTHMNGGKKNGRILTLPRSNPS
T2 sequence (P00533 25-1210 T790M/L858R): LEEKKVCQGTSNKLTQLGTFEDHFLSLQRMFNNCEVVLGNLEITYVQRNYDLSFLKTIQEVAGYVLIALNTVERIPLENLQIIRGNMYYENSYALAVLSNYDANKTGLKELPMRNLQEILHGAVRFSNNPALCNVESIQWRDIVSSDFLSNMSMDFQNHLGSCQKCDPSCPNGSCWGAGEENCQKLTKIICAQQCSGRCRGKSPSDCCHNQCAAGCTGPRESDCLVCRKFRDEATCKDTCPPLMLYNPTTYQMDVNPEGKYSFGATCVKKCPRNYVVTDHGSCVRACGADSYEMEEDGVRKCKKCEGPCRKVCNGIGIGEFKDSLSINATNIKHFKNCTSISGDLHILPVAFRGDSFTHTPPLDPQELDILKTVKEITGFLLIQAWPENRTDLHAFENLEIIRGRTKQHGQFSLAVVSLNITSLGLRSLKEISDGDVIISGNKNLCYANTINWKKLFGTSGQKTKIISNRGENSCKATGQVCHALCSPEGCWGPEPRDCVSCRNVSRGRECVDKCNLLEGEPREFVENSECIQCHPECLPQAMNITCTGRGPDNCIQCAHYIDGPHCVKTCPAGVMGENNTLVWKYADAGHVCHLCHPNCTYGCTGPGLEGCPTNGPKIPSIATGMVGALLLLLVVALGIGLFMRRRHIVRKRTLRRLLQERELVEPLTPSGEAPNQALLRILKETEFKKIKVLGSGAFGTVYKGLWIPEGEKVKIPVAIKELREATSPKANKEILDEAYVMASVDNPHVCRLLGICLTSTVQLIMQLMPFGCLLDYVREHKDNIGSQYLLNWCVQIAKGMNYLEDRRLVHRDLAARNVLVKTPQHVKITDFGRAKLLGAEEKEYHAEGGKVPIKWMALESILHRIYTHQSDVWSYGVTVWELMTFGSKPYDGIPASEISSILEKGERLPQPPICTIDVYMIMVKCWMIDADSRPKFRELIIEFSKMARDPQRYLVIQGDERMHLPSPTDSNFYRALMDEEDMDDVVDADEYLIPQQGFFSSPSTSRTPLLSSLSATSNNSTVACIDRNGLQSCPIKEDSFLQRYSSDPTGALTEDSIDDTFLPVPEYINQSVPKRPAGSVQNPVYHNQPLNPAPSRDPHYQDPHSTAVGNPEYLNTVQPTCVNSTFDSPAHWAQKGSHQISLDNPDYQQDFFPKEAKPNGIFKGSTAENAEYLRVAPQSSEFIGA

F (Mouse in vivo PK study [1]; 10 mg/kg PO): 46.7%
AUC (Mouse in vivo PK study [1]; mouse, plasma): 168 ng·h/mL
clearance (Mouse in vivo PK study [1]; mouse, plasma): 100 mL/min/kg
half-life (Mouse in vivo PK study [1]; mouse, plasma, read-out: T1/2 (IV) (converted)): 0.92 h
IC50 (INSR): 2310 nM
IC50 (H1975 cells): 2.6 nM
AUC (Mouse in vivo PK study [2]): 784 ng·h/mL
Cmax (Mouse in vivo PK study [2]): 117 ng/mL
half-life (Mouse in vivo PK study [2]; read-out: T1/2 (PO) (converted)): 2.67 h
IC50 (PC-9 cells): 1.82 nM
IC50 [3]: 7.52 nM
IC50 (A431 cells): 1090 nM
IC50 (IGF-1R): 2090 nM
IC50 [5]: 8.35 nM
IC50 [6]: 72.5 nM
SMILES: C=CC(=O)Nc1cc(Nc2nccc(-n3nc(N(C)C)c4cc(Cl)sc43)n2)c(OC)cc1N(C)CCN(C)C [Example 6, N-(5-((4-(5-Chloro-3-(dimethylamino)-1H-thieno[2,3-c]pyrazol-1-yl)pyrimidin-2-yl)amino)-2-((2-(dimethylamino)ethyl)(methyl)amino)-4-methoxyphenyl)acrylamide]
IC50 [4]: 2550 nM
TGI (tumor growth inhibition) ([7]; 5 mg/kg): 99.56%
TRTV/CRTV (relative tumor volume) ([7]; 5 mg/kg): 17.49%
Tumor Size ([7]; 5 mg/kg): 203 ± 24 mm^3
TGI (tumor growth inhibition) ([7]; 15 mg/kg): 114.04%
TRTV/CRTV (relative tumor volume) ([7]; 15 mg/kg): 5.34%
Tumor Size ([7]; 15 mg/kg): 63 ± 30 mm^3
TGI (tumor growth inhibition) ([7]; 30 mg/kg): 117.41%
TRTV/CRTV (relative tumor volume) ([7]; 30 mg/kg): 2.42%
Tumor Size ([7]; 30 mg/kg): 28 ± 9 mm^3
